Assays:
Format in all cases: cell-based
[1] = biological target: T1, KRAS G12V protein in SW900 cells (Homo sapiens, UniProt P01116, G12V); test: KRAS degradation assay (Western Blot) in SW900 cells; conditions: 24 h
T1 construct: endogenous in cells; host or cells: SW900
In short: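 Degradation of KRAS measured by Western blot after 24 h exposure to compound (0.03–3000 nM final). Values are DC50 and Dmax.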

[2] = test system: KRAS G12D mutant human lung cancer cell A427; test: 3D cell proliferation inhibition assay, A427; conditions: A-427, 168 h, 3D culture, 7 days, CTG
Description: (§1) Test Example 6: 3D Cell Proliferation Inhibition Assay
(§2) The inhibitory effects of the compounds on 3D cell proliferation were investigated on KRAS G12C mutant human non-small cell lung cancer cell NCI-H358, KRAS G12D mutant human lung cancer cell A427, KRAS G12D mutant human gastric cancer cell AGS, KRAS G12D mutant human metastatic pancreatic cancer cell AsPc-1, KRAS G12V mutant human lung squamous carcinoma cell SW900, KRAS G12V mutant human colorectal cancer cell SW620, KRAS G13D mutant human colorectal cancer epithelial cell DLD-1, and KRAS WT human gastric cancer cell MKN1. The specific procedures were as follows:
(§3) 10 μL of each compound solution diluted in a gradient was added to corresponding wells of a 96-well low-adsorption microplate (PerkinElmer), so that the final concentrations of the test compounds in the reaction system were in a range of 10000-0.026 nM. The final concentration of DMSO was 0.2%. Then 90 µL of cells were correspondingly seeded into each well to achieve a cell density of 5×10^2 cells/well (the cell density of SW900 was 5×10^3 cells/well, and the cell density of MKN1 was 1×10^3 cells/well). In addition to test wells for the test compounds, both a DMSO control well and a medium control well were set, with the DMSO control well containing DMSO and cells and the medium well containing only a medium. After the sample loading, the 96-well low-adsorption microplate was incubated in an incubator at 37° C. with […] for 7 days. After 7 days, the microplate was taken out, and 100 μL of CTG reagent (Promega) was added to each well. The plate was incubated at room temperature for 60 m and read on a microplate reader EnVision by the chemiluminescence program. The inhibition rates of the compounds at each concentration were calculated using the formula for the percentage inhibition of cell proliferation: inhibition rate 00=(mean value of DMSO control group−single concentration reading value of compound)/(mean value of DMSO control group−mean value of medium control group)×100. Then non-linear curve fillings for logarithmic concentration-inhibition rate were performed by GraphPad Prism 8, and the IC50 values of the compounds were obtained (Table 6).

[3] = test system: KRAS G12D mutant human gastric cancer cell AGS; test: 3D cell proliferation inhibition assay, AGS; conditions: 168 h, 3D culture, 7 days, CTG
Description: as §1, §2, §3

[4] = test system: KRAS G12D mutant human metastatic pancreatic cancer cell AsPc-1; test: 3D cell proliferation inhibition assay, AsPc-1; conditions: ASPC1, 168 h, 3D culture, 7 days, CTG
In short: (§4)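 Cells seeded in low-adsorption plates at 5×10^2 cells/well (MKN1 1×10^3) with compounds at final 10000–0.026 nM, 0.2% DMSO, 3D culture 7 days at 37 °C. Viability by CellTiter-Glo luminescence; inhibition normalised to DMSO and medium-only controls, IC50 from nonlinear log-concentration fit.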

[5] = test system: KRAS G12C mutant human non-small cell lung cancer cell NCI-H358; test: 3D cell proliferation inhibition assay, NCI-H358; conditions: NCI-H358, 168 h, 3D culture, 7 days, CTG
In short: as §4

[6] = test system: KRAS G12V mutant human lung squamous carcinoma cell SW900; test: 3D cell proliferation inhibition assay, SW900; conditions: SW900, 168 h, 3D culture, 7 days, CTG
Description: as §1, §2, §3

[7] = test system: KRAS WT human gastric cancer cell MKN1; test: 3D cell proliferation inhibition assay, MKN1; conditions: MKN-1, 168 h, 3D culture, 7 days, CTG
Description: as §1, §2, §3

[8] = test system: KRAS G13D mutant human colorectal cancer epithelial cell DLD-1; test: 3D cell proliferation inhibition assay, DLD-1; conditions: DLD-1, 168 h, 3D culture, 7 days, CTG
In short: as §4

[9] = test system: KRAS G12V mutant human colorectal cancer cell SW620; test: 3D cell proliferation inhibition assay, SW620; conditions: SW-620, 168 h, 3D culture, 7 days, CTG
In short: as §4

T1 sequence (P01116 1-188 isoform P01116-2 G12V): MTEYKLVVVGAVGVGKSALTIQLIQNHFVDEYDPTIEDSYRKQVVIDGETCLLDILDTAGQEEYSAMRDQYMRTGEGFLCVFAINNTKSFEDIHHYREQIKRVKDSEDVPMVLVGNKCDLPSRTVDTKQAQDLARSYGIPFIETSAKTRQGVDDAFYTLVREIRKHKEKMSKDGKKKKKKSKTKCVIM

C#Cc1c(F)ccc2cc(O)cc(-c3ncc4c(N5CCC[C@@](C)(O)C5)nc(OCC5(CN6CCN(CCCC7CCN(C(=O)c8ccc(Cl)c(N9CCC(=O)NC9=O)c8)CC7)CC6)CC5)nc4c3F)c12 [Example 4, (R)-1-(2-chloro-5-(4-(3-(4-((1-(((7-(8-ethynyl-7-fluoro-3-hydroxynaphthalen-1-yl)-8-fluoro-4-(3-hydroxy-3-methylpiperidin-1-yl)pyrido[4,3-d]pyrimidin-2-yl)oxy)methyl)cyclopropyl)methyl)piperazin-1-yl)propyl)piperidine-1-carbonyl)phenyl)dihydropyrimidine-2,4(1H,3H)-dione]
DC50 [1]: ≤ 50 nM | Dmax [1]: 80 to 100% | IC50 [2]: 100 to 500 nM | IC50 [3]: ≤ 50 nM | IC50 [4]: 50 to 100 nM | IC50 [5]: ≤ 50 nM | IC50 [6]: ≤ 50 nM | IC50 [7]: ≤ 50 nM

CCc1c(F)ccc2cc(O)cc(-c3ncc4c(N5CCC[C@@](C)(O)C5)nc(OCC5(CN6CCC(CCOCC7CCN(C(=O)c8ccc(Cl)c(N9CCC(=O)NC9=O)c8)CC7)CC6)CC5)nc4c3F)c12 [Example 5, (R)-1-(2-chloro-5-(4-((2-(1-((1-(((7-(8-ethyl-7-fluoro-3-hydroxynaphthalen-1-yl)-8-fluoro-4-(3-hydroxy-3-methylpiperidin-1-yl)pyrido[4,3-d]pyrimidin-2-yl)oxy)methyl)cyclopropyl)methyl)piperidin-4-yl)ethoxy)methyl)piperidine-1-carbonyl)phenyl)dihydropyrimidine-2,4(1H,3H)-dione]
DC50 [1]: ≤ 50 nM | Dmax [1]: 80 to 100% | IC50 [2]: ≤ 50 nM | IC50 [3]: ≤ 50 nM | IC50 [4]: ≤ 50 nM | IC50 [5]: ≤ 50 nM | IC50 [6]: 50 to 100 nM | IC50 [8]: ≤ 50 nM | IC50 [7]: ≤ 50 nM

C#Cc1c(F)ccc2cc(O)cc(-c3ncc4c(N5CCC[C@@](C)(O)C5)nc(OCC5(CN6CCC(CCOCC7CCN(C(=O)c8ccc(Cl)c(N9CCC(=O)NC9=O)c8)CC7)CC6)CC5)nc4c3F)c12 [Example 8, (R)-1-(2-chloro-5-(4-((2-(1-((1-(((7-(8-ethynyl-7-fluoro-3-hydroxynaphthalen-1-yl)-8-fluoro-4-(3-hydroxy-3-methylpiperidin-1-yl)pyrido[4,3-d]pyrimidin-2-yl)oxy)methyl)cyclopropyl)methyl)piperidin-4-yl)ethoxy)methyl)piperidine-1-carbonyl)phenyl)dihydropyrimidine-2,4(1H,3H)-dione]
DC50 [1]: ≤ 50 nM | Dmax [1]: 80 to 100% | IC50 [2]: 50 to 100 nM | IC50 [3]: ≤ 50 nM | IC50 [4]: ≤ 50 nM | IC50 [5]: ≤ 50 nM | IC50 [6]: ≤ 50 nM | IC50 [8]: ≤ 50 nM | IC50 [7]: ≤ 50 nM

CCc1cccc2cc(O)cc(-c3ccc4c(N5CCC[C@@](C)(O)C5)nc(OCC5(CN6CCN(CC7CCC8(CC7)CCN(C(=O)c7ccc(Cl)c(N9CCC(=O)NC9=O)c7)CC8)CC6)CC5)nc4c3F)c12 [Example 12, (R)-1-(2-chloro-5-(9-((4-((1-(((7-(8-ethyl-3-hydroxynaphthalen-1-yl)-8-fluoro-4-(3-hydroxy-3-methylpiperidin-1-yl)quinazolin-2-yl)oxy)methyl)cyclopropyl)methyl)piperazin-1-yl)methyl)-3-azaspiro[5.5]undecane-3-carbonyl)phenyl)dihydropyrimidine-2,4(1H,3H)-dione]
DC50 [1]: ≤ 50 nM | Dmax [1]: 80 to 100% | IC50 [2]: 100 to 500 nM | IC50 [3]: ≤ 50 nM | IC50 [4]: 100 to 500 nM | IC50 [5]: ≤ 50 nM | IC50 [6]: ≤ 50 nM | IC50 [9]: 15.3 nM | IC50 [7]: ≤ 50 nM

C#Cc1c(F)ccc2cc(O)cc(-c3ccc4c(N5CCC[C@@](C)(O)C5)nc(OCC5(CN6CCN(CC7CCC8(CC7)CCN(C(=O)c7ccc(OC)c(N9CCC(=O)NC9=O)c7)CC8)CC6)CC5)nc4c3F)c12 [Example 21, (R)-1-(5-(9-((4-((1-(((7-(8-ethynyl-7-fluoro-3-hydroxynaphthalen-1-yl)-8-fluoro-4-(3-hydroxy-3-methylpiperidin-1-yl)quinazolin-2-yl)oxy)methyl)cyclopropyl)methyl)piperazin-1-yl)methyl)-3-azaspiro[5.5]undecane-3-carbonyl)-2-methoxyphenyl)dihydropyrimidine-2,4(1H,3H)-dione]
DC50 [1]: ≤ 50 nM | Dmax [1]: 80 to 100% | IC50 [2]: 50 to 100 nM | IC50 [3]: ≤ 50 nM | IC50 [4]: ≤ 50 nM | IC50 [5]: 100 to 500 nM | IC50 [6]: ≤ 50 nM | IC50 [9]: 5.54 nM | IC50 [7]: ≤ 50 nM

C#Cc1cccc2cc(O)cc(-c3ccc4c(N5CCC[C@@](C)(O)C5)nc(OCC5(CN6CCN(CC7CCC8(CC7)CCN(C(=O)c7ccc(OC)c(N9CCC(=O)NC9=O)c7)CC8)CC6)CC5)nc4c3F)c12 [Example 24, (R)-1-(5-(9-((4-((1-(((7-(8-ethynyl-3-hydroxynaphthalen-1-yl)-8-fluoro-4-(3-hydroxy-3-methylpiperidin-1-yl)quinazolin-2-yl)oxy)methyl)cyclopropyl)methyl)piperazin-1-yl)methyl)-3-azaspiro[5.5]undecane-3-carbonyl)-2-methoxyphenyl)dihydropyrimidine-2,4(1H,3H)-dione]
DC50 [1]: ≤ 50 nM | Dmax [1]: 80 to 100% | IC50 [2]: 100 to 500 nM | IC50 [3]: 50 to 100 nM | IC50 [4]: ≤ 50 nM | IC50 [5]: 100 to 500 nM | IC50 [6]: ≤ 50 nM | IC50 [9]: 9.33 nM | IC50 [7]: ≤ 50 nM

C#Cc1c(F)ccc2cc(O)cc(-c3ccc4c(N5CCC[C@@](C)(O)C5)nc(OCC5(CN6CCC(CCOCC7CCN(C(=O)c8ccc(C)c(N9CCC(=O)NC9=O)c8)CC7)CC6)CC5)nc4c3F)c12 [Example 34, (R)-1-(5-(4-((2-(1-((1-(((7-(8-ethynyl-7-fluoro-3-hydroxynaphthalen-1-yl)-8-fluoro-4-(3-hydroxy-3-methylpiperidin-1-yl)quinazolin-2-yl)oxy)methyl)cyclopropyl)methyl)piperidin-4-yl)ethoxy)methyl)piperidine-1-carbonyl)-2-methylphenyl)dihydropyrimidine-2,4(1H,3H)-dione]
DC50 [1]: ≤ 50 nM | Dmax [1]: 80 to 100% | IC50 [2]: 100 to 500 nM | IC50 [3]: ≤ 50 nM | IC50 [4]: ≤ 50 nM | IC50 [5]: 50 to 100 nM | IC50 [6]: ≤ 50 nM | IC50 [7]: ≤ 50 nM

C#Cc1c(F)ccc2cc(O)cc(-c3ncc4c(N5CCC[C@@](C)(O)C5)nc(OCC5(CN6CCN(CC7CCC8(CC7)CCN(C(=O)c7ccc9c(c7)C(=O)N(C7CCC(=O)NC7=O)C9)CC8)CC6)CC5)nc4c3F)c12 (stereo partly drawn) [Example 35, 3-(6-(9-((4-((1-(((7-(8-ethynyl-7-fluoro-3-hydroxynaphthalen-1-yl)-8-fluoro-4-((R)-3-hydroxy-3-methylpiperidin-1-yl)pyrido[4,3-d]pyrimidin-2-yl)oxy)methyl)cyclopropyl)methyl)piperazin-1-yl)methyl)-3-azaspiro[5.5]undecane-3-carbonyl)-1-oxoisoindolin-2-yl)piperidine-2,6-dione]
DC50 [1]: ≤ 50 nM | Dmax [1]: 80 to 100% | IC50 [2]: 500 to 1000 nM | IC50 [3]: ≤ 50 nM | IC50 [4]: ≤ 50 nM | IC50 [5]: ≤ 50 nM | IC50 [6]: 100 to 500 nM | IC50 [7]: ≤ 50 nM

Reference: patent publication US20260167622A1, “PAN-KRAS DEGRADING AGENT, AND PREPARATION METHOD THEREFOR AND USE THEREOF” (LEADINGTAC PHARMACEUTICAL (SHAOXING) CO., LTD., priority 2022, published 2026)
